Data: US20250144085A1, “PHARMACEUTICAL COMPOSITION FOR PREVENTING OR TREATING CANCER COMPRISING OMEPRAZOLE BROWNING MATTER” (NEW CANCER CURE BIO CO., LTD, priority 2021, published 2025)

System: pancreatic cancer (MIA PaCa2) cell line
Test: sulforhodamine B colorimetric assay (SRB assay) of cancer cell death
Assay type: cell-based
Settings: 48 hours; for Cancer cell killing rate (%) by treatment with omeprazole (KN510) degradation substance: 0.1%; for Cancer cell growth rate following treatment with omeprazole (KN510) degradation substance, average(%): treated at a concentration of 0.1%
Experimental: In order to confirm the anticancer activity of the omeprazole (KN510) degradation substances (acid degradation substances) and base degradation substances prepared in Example 1 above, the cancer cell killing effect of each of the omeprazole (KN510) degradation substances was determined. The extent of cancer cell death was measured by sulforhodamine B colorimetric assay (SRB assay), which was performed as follows: A pancreatic cancer (MIA PaCa2) cell line (100 μ ? ) was inoculated into 96-well cell culture plates at a density ranging from 7,500 to 10,000 cells/well depending on the doubling time. Each of the omeprazole (KN510) degradation substances prepared in Example 1 above was treated at a concentration of 0.1% and incubated in a CO2 incubator for 48 hours, after which the assay was terminated by adding cold TCA. Cells were fixed intact by gently adding 50 μl of cold 50% (w/v) TCA (final concentration: 10% TCA) and incubated at 4° C. for 60 min. The supernatant was discarded, and the plate was washed five times with distilled water and then air dried. A solution (100 μl) of 0.4% (w/v) sulforhodamine B in 1% acetic acid was added to each well, and the plate was left at room temperature for 10 min. After staining, unbound dye was removed by washing five times with 1% acetic acid, and the plate was air-dried. The bound dye was then solubilized with 10 mM trizma base, and the absorbance was recorded at 515 nm using an automated plate reader. All experiments were performed in triplicate, and data were expressed as mean±standard deviation values.

SMILES: COc1ccc2[nH]c([S+]([O-])Cc3ncc(C)c(OC)c3C)nc2c1 (centres unmarked) [omeprazole (KN510), omeprazole]
- Cancer cell killing rate (%) by treatment with omeprazole (KN510) degradation substance (compared to the control group using the values in Table 1): about 32%
- Cancer cell killing rate (%) by treatment with omeprazole (KN510) degradation substance (compared to the control group using the values in Table 1, listed as KN510 + 1M HCl 0 μl): 31.85%
- Cancer cell killing rate (%) by treatment with omeprazole (KN510) degradation substance (compared to the control group using the values in Table 1, listed as KN510 + 1M NaOH 0 μl): 32.82%
- Cancer cell growth rate following treatment with omeprazole (KN510) degradation substance, average(%) (control = 100.00, listed as KN510 + 1M HCl 0 μl): 68.15%
- Cancer cell growth rate following treatment with omeprazole (KN510) degradation substance, average(%) (control = 100.00, listed as KN510 + 1M NaOH 0 μl): 67.18%
